Test results: patent publication US20230321055A1, “PREVENTIVE TREATMENT OF MIGRAINE” (priority 2022, published 2023)

Columns and labels:
[1] = oral administration; cited from earlier work
[2] = test system: participants with chronic migraine; assay: Same phase 3 study: safety and tolerability (adverse events, hepatic laboratory values), safety population; type: in vivo, human
Experimental: A phase 3, multicenter, randomized, double-blind, placebo-controlled, parallel-group study was carried out to evaluate the efficacy, safety, and tolerability of atogepant for the prevention of chronic migraine. A total of 778 participants from 133 sites in North America, Europe, and East Asia were randomized to one of three treatment arms (placebo, Atogepant 30 mg BID, and Atogepant 60 mg QD) in a 1:1:1 ratio.
This study comprised a 4-week screening and baseline period, a 12-week double blind treatment period, and a follow-up period of 4 additional weeks. The total study duration was 20 weeks. Participant disposition information and other relevant participant screening information may also be found in FIG. 19.
The overall safety profile of the study was consistent with safety findings observed in previous studies of atogepant in an episodic migraine population. […] For the safety population, the mean treatment duration for atogepant 30 mg BID, atogepant 60 mg QD, and placebo group were 80.1 days, 79.7 days, and 80.3 days, respectively. Serious adverse events occurred in 2.7% of patients treated with atogepant 60 mg QD and 1.6% of patients treated with atogepant 30 mg BID, compared to 1.2% of patients with placebo.
Table 11 presents the number and percentage of participants with post-baseline hepatic-related laboratory parameter values of clinical interest. There were five participants who had post-baseline ALT or AST elevations (≥3*ULN), with 1/254 (0.4%), 2/255 (0.8%), and 2/257 (0.8%) in the placebo, atogepant 30 mg BID, and atogepant 60 mg QD groups, respectively. All cases in the atogepant dose groups were adjudicated as unlikely to be related to study drug. No participants met potential Hy's law criteria.

[3] = 30 mg BID, safety population (N = 257)
[4] = 60 mg QD, safety population (N = 261)

**Q.** With `C[C@@H]1[C@H](c2c(F)ccc(F)c2F)C[C@H](NC(=O)c2cnc3c(c2)C[C@@]2(C3)C(=O)Nc3ncccc32)C(=O)N1CC(F)(F)F` [Atogepant, (S)—N—((3S,5S,6R)-6-methyl-2-oxo-1-(2,2,2-trifluoroethyl)-5-(2,3,6-trifluorophenyl)piperidin-3-yl)-2′-oxo-1′,2′,5,7-tetrahydrospiro[cyclopenta[b]pyridine-6,3′-pyrrolo[2,3-b]pyridine]-3-carboxamide] as the molecule, how does the half-life [1] read?
**A.** The half-life was “approximately 11 hours”.

**Q.** What about the “time to maximum plasma concentrations” value [1] of the same molecule?
**A.** The value was ≤ 2 h.

**Q.** What about the Deaths [2, 3] of the same molecule?
**A.** Its Deaths is 0 n (%).

**Q.** And the “TEAE leading to treatment discontinuation” value [2, 3]?
**A.** Its value is 13 (5.1) n (%).

**Q.** And the “TEAEs, participants” value [2, 3]?
**A.** Its value is 145 (56.4) n (%).

**Q.** What about the “TESAE Anal abscess” value [2, 3] of the same molecule?
**A.** Its value is 1 (0.4) n (%).

**Q.** And the “TESAE Benign ovarian tumour” value [2, 3]?
**A.** Its value is 1 (0.4) n (%).

**Q.** And the “TESAE COVID-19” value [2, 3]?
**A.** Its value is 0 n (%).

**Q.** And the “TESAE COVID-19 pneumonia” value [2, 3]?
**A.** The value was 1 (0.4) n (%).

**Q.** What about the “TESAE Cholelithiasis” value [2, 3] of the same molecule?
**A.** Its value is 0 n (%).

**Q.** And the “TESAE Epicondylitis” value [2, 3]?
**A.** The value was 0 n (%).

**Q.** What about the “TESAE Fall” value [2, 3] of the same molecule?
**A.** Its value is 0 n (%).

**Q.** And the “TESAE Hip fracture” value [2, 3]?
**A.** Its value is 0 n (%).

**Q.** What about the “TESAE Nasal septum deviation” value [2, 3] of the same molecule?
**A.** Its value is 0 n (%).

**Q.** What about the “TESAE Plasma cell myeloma” value [2, 3] of the same molecule?
**A.** Its value is 0 n (%).

**Q.** And the Deaths [2, 4]?
**A.** The Deaths was 0 n (%).

**Q.** And the “TESAE COVID-19” value [2, 4]?
**A.** Its value is 1 (0.4) n (%).

**Q.** And the “TESAE COVID-19 pneumonia” value [2, 4]?
**A.** Its value is 0 n (%).

**Q.** And the “serious adverse events considered related to study treatment by the investigator” value ([2]; in vivo)?
**A.** Its value is “None”.
